Test results taken from PubChem BioAssay (NCI).
Several values for one entry are separate records, joined by “and”; a condition that tells them apart may be missing. Equal values may be shown once.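 Interpolation was linear, between the two tested concentrations surrounding the appropriate level; five concentrations were tested over 48 hours in 96-well plates. GI50 is the concentration that inhibits growth by half. At the TGI there is no net growth.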

Experiments:
Experiment in all cases: NCI anticancer screen, dose series, 48 h
HS 578T breast = test system: HS 578T breast
UACC-62 melanoma = test system: UACC-62 melanoma
ACHN renal = test system: ACHN renal
SF-268 CNS = test system: SF-268 CNS
NCI-H23 lung = test system: NCI-H23 lung
LOX IMVI melanoma = test system: LOX IMVI melanoma
786-0 renal = test system: 786-0 renal
SNB-75 CNS = test system: SNB-75 CNS
MDA-MB-435 = test system: MDA-MB-435
T-47D breast = test system: T-47D breast

Row | SMILES | GI50 (HS 578T breast) [µM] | TGI (HS 578T breast) [µM] | GI50 (UACC-62 melanoma) | TGI (UACC-62 melanoma) [µM] | GI50 (ACHN renal) | TGI (ACHN renal) [µM] | GI50 (SF-268 CNS) | TGI (SF-268 CNS) [µM] | GI50 (NCI-H23 lung) | TGI (NCI-H23 lung) [µM] | GI50 (LOX IMVI melanoma) | TGI (LOX IMVI melanoma) [µM] | GI50 (786-0 renal) | TGI (786-0 renal) [µM] | TGI (SNB-75 CNS) [µM] | GI50 (SNB-75 CNS) | GI50 (MDA-MB-435) [µM] | TGI (MDA-MB-435) [µM] | GI50 (T-47D breast) [µM] | TGI (T-47D breast) [µM]
1 | NC(=O)OCCn1cc(-c2nc(-c3c[nH]c4ncccc34)cs2)c2ccccc21 | 1.07 | 4.25 | 1.57 µM | 5.41 | 2.05 µM | 8.24 | 1.48 µM | 6.77 | 2.02 µM | > 100 | 1.55 µM | 4.11 | 2.38 µM | 7.23 | – | – | – | – | – | –
2 | CCCO/S(=N\S(=O)(=O)c1ccccc1)c1ccccc1[N+](=O)[O-] (stereo not given) | – | – | – | > 100 | – | > 100 | – | > 100 | – | > 100 | – | > 100 | – | > 100 | > 100 | – | – | – | – | –
3 | COC(=O)[C@@H](C)C[C@H](Cc1ccccc1)NC(=O)c1csc([C@@H](C[C@H](C(C)C)N(C)C(=O)[C@@H](NC(=O)[C@H]2CCCCN2C)C2CCCCC2)OC(C)=O)n1 | 0.0026 | – | 0.000354 µM and 0.0025 µM | > 25 | 0.000746 µM and 0.0025 µM | > 25 | 0.00375 µM and 0.0025 µM | > 25 | 0.00079 µM and 0.0025 µM | > 25 | 0.00139 µM and 0.0025 µM | 23 | 0.00175 µM and 0.0025 µM | 2.74 | 22.2 | 0.00103 µM and 0.0025 µM | < 0.0001 | 0.000368 | – | –
4 | O=C1NC(=O)C(c2cccc([N+](=O)[O-])c2)=C1Nc1cc(Cl)c(O)c(Cl)c1 | 7.03 | > 25 | > 20.8 µM | > 25 | > 25 µM | > 25 | > 25 µM | > 25 | – | – | 24.3 µM | > 25 | > 23.3 µM | > 25 | > 25 | 10.7 µM | > 25 | > 25 | > 25 | > 25
5 | COc1ncc(-c2ccc3ncnc(Nc4cccc(Cl)c4)c3c2)cc1NS(=O)(=O)C1CC1 | 0.365 | > 100 | – | – | – | – | 1.54 µM | > 100 | 3.8 µM | > 100 | – | – | 4.82 µM | > 100 | – | – | > 100 | > 100 | – | –
6 | COc1c[c]([Hg][O]C(C)=O)c(OC)c(NC(=O)CC(C)=O)[c]1[Hg][O]C(C)=O | – | – | 11.4 µM | 24.1 | 3.01 µM | 8.53 | 13.6 µM | 18.9 | 11.6 µM | 17.9 | – | – | 2.48 µM | 7.71 | 28 | 14 µM | – | – | – | –
7 | CNS(=O)(=O)NNS(=O)(=O)c1ccc(Br)cc1 | – | – | – | > 100 | – | > 100 | – | > 100 | – | > 100 | – | > 100 | – | > 100 | > 100 | – | – | – | – | –
8 | CC(C)C(=O)NS(=O)(=O)c1ccccc1 | – | – | – | > 100 | – | > 100 | – | > 100 | – | > 100 | – | > 100 | – | > 100 | > 100 | – | – | – | – | –
9 | CC1COC(C)(C)P(=O)(c2ccccc2)C1 (stereo not given) | – | – | – | > 100 | – | > 100 | – | – | – | > 100 | – | > 100 | – | > 100 | > 100 | – | – | – | – | –
10 | CC(C)N(CCn1c2c3ccccc3ccc2c2oc(=O)c3ccccc3c21)C(C)C | – | – | – | > 100 | – | > 100 | – | > 100 | – | > 100 | – | > 100 | – | > 100 | 75.9 | – | – | – | – | –
11 | CC(=O)[O][Ga]([Br])[O]C(C)=O | – | – | > 100 µM | > 100 | > 100 µM | > 100 | > 100 µM | > 100 | > 100 µM | > 100 | > 100 µM | > 100 | > 100 µM | > 100 | > 100 | > 100 µM | – | – | – | –
12 | Cc1c(/C=N/NC(=O)c2ccc(Cl)cc2)c(=O)n(-c2ccccc2)n1C | – | – | – | > 100 | – | > 100 | – | > 100 | – | > 100 | – | > 100 | – | > 100 | > 100 | – | – | – | – | –
13 | CCn1c(=O)c2c(=O)c3c4c(oc3oc2c2ccccc21)C(=O)c1ccccc1C4=O | 19.2 | > 100 | > 25 µM | > 100 | – | – | > 71 µM | > 100 | > 48.9 µM | > 100 | – | > 100 | > 22.7 µM | > 100 | > 53.3 | > 20.8 µM | > 100 | > 100 | 0.372 | 2.87
14 | O=C(/C=C/c1ccccc1Cl)NC1C=Nc2ccc([N+](=O)[O-])cc2NC1 (stereo not given) | – | – | – | > 100 | – | > 100 | – | > 100 | – | – | – | > 100 | – | > 100 | > 100 | – | – | – | – | –
15 | O=Cc1ccc2c(c1-c1c(C=O)ccc3c1OCO3)OCO2 | – | – | – | > 100 | – | > 100 | – | > 100 | – | > 100 | – | – | – | > 100 | > 100 | – | – | – | – | –
